Source: US10676457B2, “Cyclopropylamines as LSD1 inhibitors” (Incyte Corporation, priority 2014, dated 2020)

Target: LSD-1 enzyme (Homo sapiens (Human), UniProt O60341)
Test: LANCE LSD1/KDM1A demethylase assay (LSD1 histone demethylase biochemical assay)
Details: 1 nM LSD-1 enzyme, 1 hour preincubation at 25° C., 0.4 μM Biotin-labeled Histone H3 peptide substrate
Method: LANCE LSD1/KDM1A demethylase assay—10 μL of 1 nM LSD-1 enzyme (ENZO BML-SE544-0050) in the assay buffer (50 mM Tris, pH 7.5, 0.01% Tween-20, 25 mM NaCl, 5 mM DTT) were preincubated for 1 hour at 25° C. with 0.8 μL compound/DMSO dotted in black 384 well polystyrene plates. […] After stopping the reactions plates were incubated for 30 minutes and read on a PHERAstar FS plate reader (BMG Labtech).

## CS(=O)(=O)N1CC(CCO)(N2CCC(N[C@@H]3C[C@H]3c3ccccc3)CC2)C1 [Example 93, 2-[1-(methylsulfonyl)-3-(4-{[(1R,2S)-2-phenylcyclopropyl]amino}piperidin-1-yl)azetidin-3-yl]ethanol]
  IC50: < 100 nM
